Experimental findings from patent US12295936B2, “Immunomodulating urea azalides” (Zoetis Services LLC, priority 2020, dated 2025) are described below.

Assay [1] concerns IL-1β. Briefly: LPS-stimulated whole bovine blood assay, MSD cytokine detection. Type of assay: cell-based. The note with it: overstimulation of IL-1β, LPS-stimulated bovine whole blood. As to the method:
The effect of multiple cytokines was not easily quantified using single cell types. Therefore, a fresh whole bovine blood assay was developed with LPS as a stimulant (TLR-4 agonist) and with IL-1β and TNF-α as the read-out. Compounds of the invention were evaluated against a positive control for their ability to inhibit LPS-induced IL-1β and TNF-α as an overall evaluation of relative potency and modulation of target pathways (Table 6).
(§1) In order to correlate RNA sequencing data to cytokine changes the whole blood assay was utilized. […] The enhancement result represents an overall stimulation of cytokine levels due to cellular stress or potential toxicity with increasing concentrations of the compound, representing a typical bell shape response curve for immunomodulatory activity.
In the bovine whole blood in vitro screening assay the inhibition of TNFα as induced by stimulation by lipopolysaccharide (LPS) and as measured by half the maximal inhibitory concentration (IC50) is recognized as the primary biomarker of immunomodulation potency upon pretreatment with the compounds of the invention.

For assay [2], the system named is TNF-α. The description is as above. Type of assay: cell-based. The following applies: LPS-stimulated bovine whole blood, read-out: TNF-α (IC50 μM). Here is the method: Therefore, a fresh whole bovine blood assay was developed with LPS as a stimulant (TLR-4 agonist) and with IL-1β and TNF-α as the read-out. Compounds of the invention were evaluated against a positive control for their ability to inhibit LPS-induced IL-1β and TNF-α as an overall evaluation of relative potency and modulation of target pathways (Table 6).
In the bovine whole blood in vitro screening assay the inhibition of TNFα as induced by stimulation by lipopolysaccharide (LPS) and as measured by half the maximal inhibitory concentration (IC50) is recognized as the primary biomarker of immunomodulation potency upon pretreatment with the compounds of the invention. IL-1β is a mediator of the inflammation response and is involved in a number of cellular activities including proliferation, differentiation and apoptosis. IL-1β is also released upon cellular stress or cytotoxicity or upon TLR stimulation. In the bovine whole blood assay the stimulation of IL-1β release upon increasing concentration of test compound is seen as a potential cellular toxicity signal as induced by the test compound. In order to estimate a therapeutic index from the in vitro assay a differential between the TNFα IC50 (immunomodulation potency) versus the perceived cellular toxicity concentration (IL-1β release or overstimulation) was utilized.

Assay [3] deals with IL-6. The assay is described as above. It is filed as cell-based. The following applies: LPS-stimulated bovine whole blood, read-out: IL-6 (IC50 μM).
Description: as §1

The test system of assay [4] is BRD pathogens, M. haemolytica and P. multocida. Briefly: MIC screening panel of BRD pathogens (antibacterial / non-antibacterial). The note with it: read-out: antibacterial / non-antibacterial (MIC for the BRD pathogens).

As a reminder, the IC50 is the point on the concentration scale where inhibition reaches its midpoint.

Read-outs that look alike come from different tables or passages of the source.

Consider “1-((2S,3R,4S,6R)-2-(((2R,3S,4R,5R,8R,10R,11R,12S,13S,14R)-13-(((2R,4R,5S,6S)-5-(ethoxymethyl)-5-hydroxy-4-methoxy-4,6-dimethyltetrahydro-2H-pyran-2-yl)oxy)-2-ethyl-3,4,10-trihydroxy-3,5,8,10,12,14-hexamethyl-15-oxo-1-oxa-6-azacyclopentadecan-11-yl)oxy)-3-hydroxy-6-methyltetrahydro-2H-pyran-4-yl)-1,3-dimethyl-3-phenylurea [Example C-2]”, for which the “IL-1β OS of LPS” value in assay [1] was 100 µM. For the same compound, the IC50 in assay [2] is 200 µM; in assay [3], 100 µM.

For the compound `CCCNC[C@]1(O)[C@H](C)O[C@@H](O[C@H]2[C@H](C)[C@@H](O[C@@H]3O[C@H](C)C[C@H](N(C)C(=O)N(C)c4ccccn4)[C@H]3O)[C@](C)(O)C[C@@H](C)CN[C@H](C)[C@@H](O)[C@](C)(O)[C@@H](CC)OC(=O)[C@@H]2C)C[C@@]1(C)OC` [Example H-45, 1-((2S,3R,4S,6R)-2-(((2R,3S,4R,5R,8R,10R,11R,12S,13S,14R)-2-ethyl-3,4,10-trihydroxy-13-(((2R,4R,5S,6S)-5-hydroxy-4-methoxy-4,6-dimethyl-5-((propylamino)methyl)tetrahydro-2H-pyran-2-yl)oxy)-3,5,8,10,12,14-hexamethyl-15-oxo-1-oxa-6-azacyclopentadecan-11-yl)oxy)-3-hydroxy-6-methyltetrahydro-2H-pyran-4-yl)-1,3-dimethyl-3-(pyridin-2-yl)urea], the “IL-1β OS of LPS” value in assay [1] stood at 250 µM. The half-maximal inhibitory concentration (IC50) in assay [2] (Bos taurus) is 109 µM; in assay [3] (Bos taurus), 130 µM.

Regarding `CC[C@H]1OC(=O)[C@H](C)[C@@H](O[C@H]2C[C@@](C)(OC)[C@](O)(Cn3cncn3)[C@H](C)O2)[C@H](C)[C@@H](O[C@@H]2O[C@H](C)C[C@H](N(C)C(=O)N(C)c3ccccc3)[C@H]2O)[C@](C)(O)C[C@@H](C)CN[C@H](C)[C@@H](O)[C@]1(C)O` [Example J-27, 1-((2S,3R,4S,6R)-2-(((2R,3S,4R,5R,8R,10R,11R,12S,13S,14R)-13-(((2R,4R,5S,6S)-5-((1H-1,2,4-triazol-1-yl)methyl)-5-hydroxy-4-methoxy-4,6-dimethyltetrahydro-2H-pyran-2-yl)oxy)-2-ethyl-3,4,10-trihydroxy-3,5,8,10,12,14-hexamethyl-15-oxo-1-oxa-6-azacyclopentadecan-11-yl)oxy)-3-hydroxy-6-methyltetrahydro-2H-pyran-4-yl)-1,3-dimethyl-3-phenylurea], in assay [1], the “IL-1β OS of LPS” value came out at 250 µM. For the same compound, the figures for the IC50 in assay [2] (Bos taurus) and in assay [3] (Bos taurus) were 48 µM and 124 µM, respectively.

Consider `CC[C@H]1OC(=O)[C@H](C)[C@@H](O[C@H]2C[C@@](C)(OC)[C@@H](O)[C@H](C)O2)[C@H](C)[C@@H](O[C@@H]2O[C@H](C)C[C@H](N(C)C(=O)Nc3ccc(N(C)C)cc3)[C@H]2O)[C@](C)(O)C[C@@H](C)CN(C)[C@H](C)[C@@H](O)[C@]1(C)O` [Example B-7, 3-(4-(dimethylamino)phenyl)-1-((2S,3R,4S,6R)-2-(((2R,3S,4R,5R,8R,10R,11R,12S,13S,14R)-2-ethyl-3,4,10-trihydroxy-13-(((2R,4R,5S,6S)-5-hydroxy-4-methoxy-4,6-dimethyltetrahydro-2H-pyran-2-yl)oxy)-3,5,6,8,10,12,14-heptamethyl-15-oxo-1-oxa-6-azacyclopentadecan-11-yl)oxy)-3-hydroxy-6-methyltetrahydro-2H-pyran-4-yl)-1-methylurea], for which, in assay [1], the “IL-1β OS of LPS” value came to 100 µM. In addition, the results for the IC50 in assay [2] (Bos taurus) and in assay [3] (Bos taurus) were 156 µM and 143 µM, respectively.

For `CC[C@H]1OC(=O)[C@H](C)[C@@H](O[C@H]2C[C@@](C)(OC)[C@](O)(CNCC3CCN(C)CC3)[C@H](C)O2)[C@H](C)[C@@H](O[C@@H]2O[C@H](C)C[C@H](N(C)C(=O)N(C)c3ccccc3)[C@H]2O)[C@](C)(O)C[C@@H](C)CN[C@H](C)[C@@H](O)[C@]1(C)O` [Example H-30, 1-((2S,3R,4S,6R)-2-(((2R,3S,4R,5R,8R,10R,11R,12S,13S,14R)-2-ethyl-3,4,10-trihydroxy-13-(((2R,4R,5S,6S)-5-hydroxy-4-methoxy-4,6-dimethyl-5-((((1-methylpiperidin-4-yl)methyl)amino)methyl)tetrahydro-2H-pyran-2-yl)oxy)-3,5,8,10,12,14-hexamethyl-15-oxo-1-oxa-6-azacyclopentadecan-11-yl)oxy)-3-hydroxy-6-methyltetrahydro-2H-pyran-4-yl)-1,3-dimethyl-3-phenylurea], the “IL-1β OS of LPS” value in assay [1] is 250 µM. For the same compound, the values for the IC50 in assay [2] (Bos taurus) and in assay [3] (Bos taurus) were 250 µM and over 250 µM, respectively.

Regarding `CC[C@H]1OC(=O)[C@H](C)[C@@H](O[C@H]2C[C@@](C)(OC)[C@](O)(CNCCN3CCOCC3)[C@H](C)O2)[C@H](C)[C@@H](O[C@@H]2O[C@H](C)C[C@H](N(C)C(=O)N(C)c3ccccc3)[C@H]2O)[C@](C)(O)C[C@@H](C)CN[C@H](C)[C@@H](O)[C@]1(C)O` [Example H-42, 1-((2S,3R,4S,6R)-2-(((2R,3S,4R,5R,8R,10R,11R,12S,13S,14R)-2-ethyl-3,4,10-trihydroxy-13-(((2R,4R,5S,6S)-5-hydroxy-4-methoxy-4,6-dimethyl-5-(((2-morpholinoethyl)amino)methyl)tetrahydro-2H-pyran-2-yl)oxy)-3,5,8,10,12,14-hexamethyl-15-oxo-1-oxa-6-azacyclopentadecan-11-yl)oxy)-3-hydroxy-6-methyltetrahydro-2H-pyran-4-yl)-1,3-dimethyl-3-phenylurea], in assay [1], the “IL-1β OS of LPS” value was 100 µM. Also, the MIC in assay [4] was over 64 µg/mL. Further, the 50% inhibitory concentration (IC50) in assay [3] (Bos taurus) stood at 177 µM.

On to `CC[C@H]1OC(=O)[C@H](C)[C@@H](O[C@H]2C[C@@](C)(OC)[C@](O)(CN3CC(N4CCCCC4)C3)[C@H](C)O2)[C@H](C)[C@@H](O[C@@H]2O[C@H](C)C[C@H](N(C)C(=O)N(C)c3ccccc3)[C@H]2O)[C@](C)(O)C[C@@H](C)CN[C@H](C)[C@@H](O)[C@]1(C)O` [Example J-19, 1-((2S,3R,4S,6R)-2-(((2R,3S,4R,5R,8R,10R,11R,12S,13S,14R)-2-ethyl-3,4,10-trihydroxy-13-(((2R,4R,5S,6S)-5-hydroxy-4-methoxy-4,6-dimethyl-5-((3-(piperidin-1-yl)azetidin-1-yl)methyl)tetrahydro-2H-pyran-2-yl)oxy)-3,5,8,10,12,14-hexamethyl-15-oxo-1-oxa-6-azacyclopentadecan-11-yl)oxy)-3-hydroxy-6-methyltetrahydro-2H-pyran-4-yl)-1,3-dimethyl-3-phenylurea], for which, in assay [1], the “IL-1β OS of LPS” value came to 16 µM. In assay [2] (Bos taurus), the IC50 came to 19 µM. Further, the MIC in assay [4] is over 64 µg/mL.

In the case of `CCNC[C@]1(O)[C@H](C)O[C@@H](O[C@H]2[C@H](C)[C@@H](O[C@@H]3O[C@H](C)C[C@H](N(C)C(=O)N(C)c4ccccc4)[C@H]3O)[C@](C)(O)C[C@@H](C)CN[C@H](C)[C@@H](O)[C@](C)(O)[C@@H](CC)OC(=O)[C@@H]2C)C[C@@]1(C)OC` [Example H-23, 1-((2S,3R,4S,6R)-2-(((2R,3S,4R,5R,8R,10R,11R,12S,13S,14R)-2-ethyl-13-(((2R,4R,5S,6S)-5-((ethylamino)methyl)-5-hydroxy-4-methoxy-4,6-dimethyltetrahydro-2H-pyran-2-yl)oxy)-3,4,10-trihydroxy-3,5,8,10,12,14-hexamethyl-15-oxo-1-oxa-6-azacyclopentadecan-11-yl)oxy)-3-hydroxy-6-methyltetrahydro-2H-pyran-4-yl)-1,3-dimethyl-3-phenylurea], in assay [1], the “IL-1β OS of LPS” value worked out at 100 µM. The IC50 in assay [3] (Bos taurus) turned out to be 193 µM.

With `CCCNC[C@]1(O)[C@H](C)O[C@@H](O[C@H]2[C@H](C)[C@@H](O[C@@H]3O[C@H](C)C[C@H](N(C)C(=O)N(CC(F)(F)F)c4ccccc4)[C@H]3O)[C@](C)(O)C[C@@H](C)CN[C@H](C)[C@@H](O)[C@](C)(O)[C@@H](CC)OC(=O)[C@@H]2C)C[C@@]1(C)OC` [Example H-54, 1-((2S,3R,4S,6R)-2-(((2R,3S,4R,5R,8R,10R,11R,12S,13S,14R)-2-ethyl-3,4,10-trihydroxy-13-(((2R,4R,5S,6S)-5-hydroxy-4-methoxy-4,6-dimethyl-5-((propylamino)methyl)tetrahydro-2H-pyran-2-yl)oxy)-3,5,8,10,12,14-hexamethyl-15-oxo-1-oxa-6-azacyclopentadecan-11-yl)oxy)-3-hydroxy-6-methyltetrahydro-2H-pyran-4-yl)-1-methyl-3-phenyl-3-(2,2,2-trifluoroethyl)urea], the “IL-1β OS of LPS” value in assay [1] is 6 µM. For the same compound, the half-maximal inhibitory concentration (IC50) in assay [2] (Bos taurus) amounted to 9 µM. The MIC in assay [4] is over 64 µg/mL.
